Assay results published in patent US10414763B2 (CANCER RESEARCH TECHNOLOGY LIMITED, priority 2014, dated 2019).

Molecular target: T1, full-length human PKCι (Homo sapiens, UniProt P41743)
T1 construct: Recombinant, full-length human PKCι expressed in Sf21 insect cells is also commercially available; purchased EMD Millipore; host or cells: Sf21 insect cells (baculovirus)
T1 sequence (P41743 1-596): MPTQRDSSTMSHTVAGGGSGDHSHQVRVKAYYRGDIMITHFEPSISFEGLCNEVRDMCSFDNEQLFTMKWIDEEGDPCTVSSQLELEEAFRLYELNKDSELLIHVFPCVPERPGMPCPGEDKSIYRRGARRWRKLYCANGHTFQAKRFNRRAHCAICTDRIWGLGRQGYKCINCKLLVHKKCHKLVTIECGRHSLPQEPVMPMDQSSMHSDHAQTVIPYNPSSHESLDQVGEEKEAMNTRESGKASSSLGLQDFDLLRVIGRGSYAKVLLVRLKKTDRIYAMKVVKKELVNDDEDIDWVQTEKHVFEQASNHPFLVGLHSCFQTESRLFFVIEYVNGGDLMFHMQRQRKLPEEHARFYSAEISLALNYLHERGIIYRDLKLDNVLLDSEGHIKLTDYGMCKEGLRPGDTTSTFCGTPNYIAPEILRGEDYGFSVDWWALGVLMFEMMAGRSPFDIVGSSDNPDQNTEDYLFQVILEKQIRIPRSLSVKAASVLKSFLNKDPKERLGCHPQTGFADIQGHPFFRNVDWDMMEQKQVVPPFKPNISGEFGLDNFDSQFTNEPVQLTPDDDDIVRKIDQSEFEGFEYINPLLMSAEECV
Test: PKCι IC50 IMAP fluorescence polarisation assay, full-length enzyme, 150 μM ATP
Format: biochemical
Details: read-out: IC50 in IMAP assay against full length PKCi at 150 μM ATP
Source text: Assays are based on the ability of PKCι to phosphorylate a commercially available peptide substrate in vitro. The peptide substrate is FAM-PKCε pseudopeptide derived peptide, and comprises the amino acid sequence 5FAM-ERMRPRKRQGSVRRRV-NH2. Recombinant, full-length human PKCι expressed in Sf21 insect cells is also commercially available. Recombinant, kinase-domain human PKCι is expressed and purified in-house.
The procedure below explains how dose response curves for inhibitors of PKCι are obtained. The screen described is for a 384 well format but the assay can be adapted to 1536 or other formats as required.
Compounds to be tested are dissolved in 100% DMSO. Compounds are diluted as required to give a final concentration of 4% DMSO (v/v) in the assay. 1 μl is plated into 384 well black low-binding flat bottomed assay plates which are used immediately. Dilutions and additions of compound to assay plates are carried out using Matrix WellMate® and Matrix PlateMate® Plus liquid handling systems.
On the day of the screen PKCι/substrate working solution, and ATP working solution, are prepared in buffer containing 20 mM tris-HCl pH7.5, 10 mM MgCl2, 0.01% Triton X100, 250 μM EGTA and 1 mM DTT. The final concentration of PKCι used varies depending on the batch of protein but is typically 15 pM. The final concentration of peptide substrate in the assay is 100 nM. ATP is used at a final concentration of 150 μM or 25 μM in the assays containing full-length or kinase-domain PKCι respectively, which corresponds to five times or equal to the KM^APP for ATP for each enzyme, respectively. The final buffer concentration in the assay is 18 mM tris-HCl pH7.5, 9 mM MgCl2, 0.009% Triton X100, 225 μM EGTA and 0.9 mM DTT. Relevant controls are included, namely no compound and no enzyme. 5 μl PKCι/substrate working solution at 30 pM and 200 nM, respectively, is added to the wells, followed by 4 μl ATP working solution at 375 μM or 62.5 μM for full-length or kinase-domain PKCι respectively, using a 16 channel Matrix pipette. The reaction is allowed to incubate for 60 minutes at room temperature, before the reaction is stopped and developed by the addition of 20 μl IMAP™ development reagent (Molecular Devices). IMAP development reagent consists of 0.25% (v/v) IMAP progressive binding reagent, 17% (v/v) IMAP progressive binding buffer A and 3% (v/v) IMAP progressive binding buffer B. The plates are then incubated for 2 hours at room temperature before being read using an appropriate plate reader, for example a Molecular Devices HT Analyst or a BMG Pherastar. Plates are read using a fluorescence polarisation protocol with excitation at 485 nm and emission at 530 nm, and dichroic mirror at 505 nm.
Percentage inhibition values are calculated from fluorescence polarisation values, using the no compound and no enzyme control values as 0% and 100% inhibition, respectively. IC50 determination is performed with ExcelFit software (IDBS) using curve fit 205. Z′ factors are determined for each plate tested and are all above 0.5.
Alternatively, compounds were tested for their ability to inhibit the kinase activity of recombinant human baculovirus-expressed PKCiota using the immobilized metal-ion affinity particle (IMAP®) fluorescence polarization detection system (Molecular Devices, Sunnyvale, Calif.). PKCiota/IMAP® substrate mixture (2×) was prepared in 1×IMAP assay buffer (Molecular Devices) containing 1 mM DTT so that the final assay concentrations were 15 pM PKCiota (EMD Millipore, Billerica, Mass.) and 100 nM 5-fluorescein-amidite (FAM)-PKC ? -pseudosubstrate (5-FAM-ERMRPRKRQGSVRRRV-NH2) (Molecular Devices). The 2× working solution was added at 5 μL/well into a 384-well black, non-binding, flat bottom assay plate (Corning, Corning, N.Y.). […]

SMILES | IC50 [nM]
C[C@@H]1CNCC[C@@H]1Nc1nc(-c2ccnc(Nc3ncc(F)cc3F)c2)nc2cncc(C3CCC3)c12 (racemic) [Example 283, {5-Cyclobutyl-2-[2-(3,5-difluoro-pyridin-2-ylamino)-pyridin-4-yl]-pyrido[3,4-d]pyrimidin-4-yl}-(rac-(3R,4S)-3-methyl-piperidin-4-yl)-amine] | < 100
O[C@H]1CNC[C@@H]1Nc1nc(-c2ccnc(Nc3nc(F)ccc3F)c2)nc2cncc(C3CCC3)c12 (racemic) [Example 285, rac-(3S,4S)-4-{5-Cyclobutyl-2-[2-(3,6-difluoro-pyridin-2-ylamino)-pyridin-4-yl]-pyrido[3,4-d]pyrimidin-4-ylamino}-pyrrolidin-3-ol] | < 100
O[C@@H]1CNCC[C@H]1Nc1nc(-c2ccnc(Nc3ncccc3F)c2)nc2cncc(C3CCC3)c12 (racemic) [Example 286, rac-(3R,4R)-4-{5-Cyclobutyl-2-[2-(3-fluoro-pyridin-2-ylamino)-pyridin-4-yl]-pyrido[3,4-d]pyrimidin-4-ylamino}-piperidin-3-ol] | < 100
O[C@@H]1CNCC[C@H]1Nc1nc(-c2ccnc(Nc3ncc(F)cc3F)c2)nc2cncc(C3CCC3)c12 (racemic) [Example 287, rac-(3R,4R)-4-{5-Cyclobutyl-2-[2-(3,5-difluoro-pyridin-2-ylamino)-pyridin-4-yl]-pyrido[3,4-d]pyrimidin-4-ylamino}-piperidin-3-ol] | < 100
C[C@@H]1CNCC[C@H]1Nc1nc(-c2ccnc(Nc3ncccc3F)c2)nc2cncc(C3CCC3)c12 (racemic) [Example 289, {5-Cyclobutyl-2-[2-(3-fluoro-pyridin-2-ylamino)-pyridin-4-yl]-pyrido[3,4-d]pyrimidin-4-yl}-(rac-(3R,4R)-3-methyl-piperidin-4-yl)-amine] | < 100
C[C@@H]1CNCC[C@H]1Nc1nc(-c2ccnc(Nc3ncc(F)cc3F)c2)nc2cncc(C3CCC3)c12 (racemic) [Example 290, {5-Cyclobutyl-2-[2-(3,5-difluoro-pyridin-2-ylamino)-pyridin-4-yl]-pyrido[3,4-d]pyrimidin-4-yl}-(rac-(3R,4R)-3-methyl-piperidin-4-yl)-amine] | < 100
C[C@@H]1CNCC[C@H]1Nc1nc(-c2ccnc(Nc3nc(F)cc(F)c3F)c2)nc2cncc(C3CCC3)c12 (racemic) [Example 291, {5-Cyclobutyl-2-[2-(3,4,6-trifluoro-pyridin-2-ylamino)-pyridin-4-yl]-pyrido[3,4-d]pyrimidin-4-yl}-(rac-(3R,4R)-3-methyl-piperidin-4-yl)-amine] | < 100
O[C@H]1CNCC[C@H]1Nc1nc(-c2ccnc(Nc3ncccc3F)c2)nc2cncc(C3CCC3)c12 (racemic) [Example 292, rac-(3S,4R)-4-{5-Cyclobutyl-2-[2-(3-fluoro-pyridin-2-ylamino)-pyridin-4-yl]-pyrido[3,4-d]pyrimidin-4-ylamino}-piperidin-3-ol] | < 100
O[C@H]1CNCC[C@H]1Nc1nc(-c2ccnc(Nc3ncc(F)cc3F)c2)nc2cncc(C3CCC3)c12 (racemic) [Example 293, rac-(3S,4R)-4-{5-Cyclobutyl-2-[2-(3,5-difluoro-pyridin-2-ylamino)-pyridin-4-yl]-pyrido[3,4-d]pyrimidin-4-ylamino}-piperidin-3-ol] | < 100
O[C@H]1CNCC[C@H]1Nc1nc(-c2ccnc(Nc3nc(F)cc(F)c3F)c2)nc2cncc(C3CCC3)c12 (racemic) [Example 294, rac-(3S,4R)-4-{5-Cyclobutyl-2-[2-(3,4,6-trifluoro-pyridin-2-ylamino)-pyridin-4-yl]-pyrido[3,4-d]pyrimidin-4-ylamino}-piperidin-3-ol] | < 100

Next, values leading:

IC50 [nM] | SMILES
< 100 | C[C@@]1(O)CNCC[C@H]1Nc1nc(-c2ccnc3[nH]c4ccccc4c23)nc2cncc(C3CC3)c12 (racemic) [Example 247, rac-(3R,4R)-4-[5-Cyclopropyl-2-(9H-pyrido[2,3-b]indol-4-yl)-pyrido[3,4-d]pyrimidin-4-ylamino]-3-methyl-piperidin-3-ol]
< 100 | COc1cncc2nc(-c3ccnc(Nc4nc(F)ccc4F)c3)nc(NC3CCNCC3(C)C)c12 (racemic) [Example 261, rac-2-[2-[(3,6-difluoro-2-pyridyl)amino]-4-pyridyl]-N-(3,3-dimethyl-4-piperidyl)-5-methoxy-pyrido[3,4-d]pyrimidin-4-amine]
< 100 | C[C@H]1CNCC[C@@H]1Nc1nc(-c2ccnc3[nH]c(C(F)(F)F)cc23)nc2cncc(C3CCC3)c12 (racemic) [Example 262]
< 100 | C[C@@H]1CNCC[C@@H]1Nc1nc(-c2ccnc3[nH]c(C(F)(F)F)cc23)nc2cncc(C3CCC3)c12 (racemic) [Example 263]
< 100 | O[C@H]1CNCC[C@H]1Nc1nc(-c2ccnc(Nc3ccc4ccccc4n3)c2)nc2cncc(C3CCC3)c12 (racemic) [Example 270, rac-(3S,4R)-4-{5-Cyclobutyl-2-[2-(quinolin-2-ylamino)-pyridin-4-yl]-pyrido[3,4-d]pyrimidin-4-ylamino}-piperidin-3-ol]
< 100 | O[C@@H]1CNCC[C@H]1Nc1nc(-c2ccnc(Nc3ccc4ccccc4n3)c2)nc2cncc(C3CCC3)c12 (racemic) [Example 273, rac-(3R,4R)-4-{5-Cyclobutyl-2-[2-(quinolin-2-ylamino)-pyridin-4-yl]-pyrido[3,4-d]pyrimidin-4-ylamino}-piperidin-3-ol]
< 100 | C[C@@H]1CNCC[C@@H]1Nc1nc(-c2ccnc(Nc3nc4ccccn4n3)c2)nc2cncc(C3CCC3)c12 (racemic) [Example 276, {5-Cyclobutyl-2-[2-([1,2,4]triazolo[1,5-a]pyridin-2-ylamino)-pyridin-4-yl]-pyrido[3,4-d]pyrimidin-4-yl}-(rac-(3R,4S)-3-methyl-piperidin-4-yl)-amine]
< 100 | C[C@@H]1CNCC[C@H]1Nc1nc(-c2ccnc(Nc3nc4ccccn4n3)c2)nc2cncc(C3CCC3)c12 (racemic) [Example 277, {5-Cyclobutyl-2-[2-([1,2,4]triazolo[1,5-a]pyridin-2-ylamino)-pyridin-4-yl]-pyrido[3,4-d]pyrimidin-4-yl}-(rac-(3R,4R)-3-methyl-piperidin-4-yl)-amine]
< 100 | C[C@@H]1CNCC[C@@H]1Nc1nc(-c2ccnc(Nc3ncccc3F)c2)nc2cncc(C3CCC3)c12 (racemic) [Example 282, {5-Cyclobutyl-2-[2-(3-fluoro-pyridin-2-ylamino)-pyridin-4-yl]-pyrido[3,4-d]pyrimidin-4-yl}-(rac-(3R,4S)-3-methyl-piperidin-4-yl)-amine]
